# Biological target: T1, bacteriophage T4 DNA polymerase (Enterobacteria phage T4, UniProt P04415)
# T1 construct: made in house
# T1 sequence (P04415 1-898): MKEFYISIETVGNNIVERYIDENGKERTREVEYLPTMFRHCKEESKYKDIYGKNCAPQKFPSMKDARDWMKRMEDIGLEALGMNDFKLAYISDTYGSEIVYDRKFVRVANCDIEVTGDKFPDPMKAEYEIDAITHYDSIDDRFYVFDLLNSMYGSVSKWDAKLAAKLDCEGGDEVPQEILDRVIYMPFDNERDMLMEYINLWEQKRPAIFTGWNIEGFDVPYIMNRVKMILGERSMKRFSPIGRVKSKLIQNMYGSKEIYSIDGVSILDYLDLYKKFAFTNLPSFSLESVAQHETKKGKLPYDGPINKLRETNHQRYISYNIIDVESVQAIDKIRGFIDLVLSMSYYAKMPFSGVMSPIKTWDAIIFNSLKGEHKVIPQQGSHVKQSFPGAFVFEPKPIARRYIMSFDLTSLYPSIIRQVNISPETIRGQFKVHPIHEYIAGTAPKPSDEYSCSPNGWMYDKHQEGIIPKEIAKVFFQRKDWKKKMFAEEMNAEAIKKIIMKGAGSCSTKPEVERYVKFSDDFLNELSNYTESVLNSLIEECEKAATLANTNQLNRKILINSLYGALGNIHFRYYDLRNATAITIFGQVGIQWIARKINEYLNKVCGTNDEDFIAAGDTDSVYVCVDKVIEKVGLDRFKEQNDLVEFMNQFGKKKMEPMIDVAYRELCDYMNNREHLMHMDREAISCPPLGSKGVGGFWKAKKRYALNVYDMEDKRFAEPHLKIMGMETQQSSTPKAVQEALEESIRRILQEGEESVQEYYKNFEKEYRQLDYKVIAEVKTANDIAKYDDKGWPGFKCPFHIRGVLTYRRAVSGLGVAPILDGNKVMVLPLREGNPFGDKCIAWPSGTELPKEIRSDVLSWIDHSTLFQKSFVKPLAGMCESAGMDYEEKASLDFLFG
# Assay: Counter-screen against bacteriophage T4 DNA polymerase
# Format: biochemical
# Details: DRC-2
# Protocol: Codon-optimized, exonuclease-deficient Pf-apPOL was overexpressed in E. coli BL21 (DE3) and purified as described. The protein was dialysed against two, 1-liter changes of 20 mM Tris-HCl (pH 8.0), 400 mM NaCl, and 20% glycerol. Plasmodium bergei and Babesia bovis apPOLs (Pb-apPOL and Bb-apPOL, respectively) were codon-optimized, expressed, and purified as for Pf-apPOL[15]. Bacteriophage T4 DNA polymerase was purified as described. The DNA oligonucleotides used to make the high-throughput substrate were obtained from Integrated DNA Technologies. Deoxynucleotides were purchased from Strategene. All other materials came from Fisher Scientific.
# Each compound was tested in a dose-response format to determine IC50 values. […] T4 DNA polymerase can be produced in large quantities, and is in the same family (B-family) as the replicative human DNA polymerases (α, δ, and ε)[20].
compound,measurement,setting,value
COc1ccc(-c2n[nH]cc2Oc2ccc(Cl)cc2)c(O)c1 [KU0029837],% inhibition T4 10',concentration 2.5,-22%
same,% inhibition T4 10',concentration 5,-28%
same,% inhibition T4 10',concentration 10,-25%
same,% inhibition T4 10',concentration 20,-25%
same,% inhibition T4 10',concentration 40,-19%
same,% inhibition T4 10',concentration 80,-34%
same,% inhibition T4 40',concentration 2.5,-22%
same,% inhibition T4 40',concentration 5,-28%
same,% inhibition T4 40',concentration 10,-25%
same,% inhibition T4 40',concentration 20,-25%
same,% inhibition T4 40',concentration 40,-19%
same,% inhibition T4 40',concentration 80,-34%
same,% inhibition T4 90',concentration 2.5,-22%
same,% inhibition T4 90',concentration 10,-26%
same,% inhibition T4 90',concentration 20,-25%
same,% inhibition T4 90',concentration 80,-34%
same,% inhibition T4 180',concentration 2.5,-26%
same,% inhibition T4 180',concentration 10,-30%
same,% inhibition T4 180',concentration 20,-30%
"COc1ccc(-c2cc3nc4c(c(=O)n3[nH]2)CCN(C(=O)CCc2ccccc2)C4)cc1 [Molecule 17, COc1ccc(cc1)c1[nH]n2c(c1)nc1c(c2=O)CCN(C1)C(=O)CCc1ccccc1]",% inhibition T4 10',concentration 2.5,-22%
same,% inhibition T4 10',concentration 5,-46%
same,% inhibition T4 10',concentration 10,-38%
same,% inhibition T4 10',concentration 20,-44%
same,% inhibition T4 10',concentration 40,-44%
same,% inhibition T4 40',concentration 5,-38%
same,% inhibition T4 40',concentration 10,-30%
same,% inhibition T4 90',concentration 10,-25%
same,% inhibition T4 90',concentration 40,-30%
same,% inhibition T4 90',concentration 80,-46%
same,% inhibition T4 180',concentration 2.5,-13%
same,% inhibition T4 180',concentration 10,-22%
same,% inhibition T4 180',concentration 20,-23%
same,% inhibition T4 180',concentration 40,-25%
"COc1cccc(C(=O)N2CCc3c(nc4cc(-c5ccccc5)[nH]n4c3=O)C2)c1OC [Molecule 22, COc1c(OC)cccc1C(=O)N1CCc2c(C1)nc1n(c2=O)[nH]c(c1)c1ccccc1]",% inhibition T4 10',concentration 40,-28%
same,% inhibition T4 10',concentration 80,-28%
same,% inhibition T4 40',concentration 2.5,-13%
same,% inhibition T4 40',concentration 40,-28%
same,% inhibition T4 40',concentration 80,-27%
same,% inhibition T4 90',concentration 2.5,-11%
same,% inhibition T4 90',concentration 10,-29%
same,% inhibition T4 90',concentration 40,-28%
same,% inhibition T4 180',concentration 2.5,-11%
same,% inhibition T4 180',concentration 10,-27%
same,% inhibition T4 180',concentration 20,-29%
same,% inhibition T4 180',concentration 40,-29%

# Reference: PMC9090415, “Discovery of small molecule inhibitors of Plasmodium falciparum apicoplast DNA polymerase” (Journal of Enzyme Inhibition and Medicinal Chemistry, 2022)
